Tested on: 997726-040-R-J2-PDC tumor spheroids, viability
Test: Anticancer human tumor 997726-040-R-J2-PDC patient-derived squamous cell lung carcinoma cell line growth inhibition [PI3K]
Details: spheroids with HUVEC and MSC; for IC50: curve of first compound; for viability, T/C: stronger effect = lower value; active = viability on the fitted dose curve at most 10% of control; inactive = the rest
How it was run: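 Tumor cells were combined with HUVEC and MSCs into spheroids, then dosed with PI3K-inhibitor combinations over half-log ranges capped near clinical Cmax or 10 microM.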
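Note: spheroids exposed to compounds for seven days before readout.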

CCN1CCN(Cc2ccc(Nc3ncc(F)c(-c4cc(F)c5nc(C)n(C(C)C)c5c4)n3)nc2)CC1 + CC(Nc1ccc2c(c1)OCCn1cc(N3C(=O)OCC3C(F)F)nc1-2)C(N)=O
> 1000 nM: IC50 (second compound 0.00316 µM)
830 nM: IC50 (second compound 0.01 µM)
10.4 nM: IC50 (second compound 0.0316 µM)
< 3.16 nM: IC50 (second compound 0.1 µM) | IC50 (second compound 0.316 µM) | IC50 (second compound 1 µM)
inactive: viability, T/C (second compound 0.00316 µM, first compound 0.00316 µM) 79% | viability, T/C (second compound 0.00316 µM, first compound 0.01 µM) 79.8% | viability, T/C (second compound 0.00316 µM, first compound 0.0316 µM) 72.7% | viability, T/C (second compound 0.00316 µM, first compound 0.1 µM) 58.5% | viability, T/C (second compound 0.00316 µM, first compound 0.316 µM) 59.4% | viability, T/C (second compound 0.00316 µM, first compound 1 µM) 62.3% | viability, T/C (second compound 0.01 µM, first compound 0.00316 µM) 79.8% | viability, T/C (second compound 0.01 µM, first compound 0.01 µM) 77.3% | viability, T/C (second compound 0.01 µM, first compound 0.0316 µM) 60.7% | viability, T/C (second compound 0.01 µM, first compound 0.1 µM) 62.6% | viability, T/C (second compound 0.01 µM, first compound 0.316 µM) 55.4% | viability, T/C (second compound 0.01 µM, first compound 1 µM) 48.1% | viability, T/C (second compound 0.0316 µM, first compound 0.00316 µM) 55% | viability, T/C (second compound 0.0316 µM, first compound 0.01 µM) 54.6% | viability, T/C (second compound 0.0316 µM, first compound 0.0316 µM) 45.9% | viability, T/C (second compound 0.0316 µM, first compound 0.1 µM) 37.7% | viability, T/C (second compound 0.0316 µM, first compound 0.316 µM) 40.4% | viability, T/C (second compound 0.0316 µM, first compound 1 µM) 43.4% | viability, T/C (second compound 0.1 µM, first compound 0.00316 µM) 44.7% | viability, T/C (second compound 0.1 µM, first compound 0.01 µM) 38.1% | viability, T/C (second compound 0.1 µM, first compound 0.0316 µM) 34.6% | viability, T/C (second compound 0.1 µM, first compound 0.1 µM) 30.5% | viability, T/C (second compound 0.1 µM, first compound 0.316 µM) 32.5% | viability, T/C (second compound 0.1 µM, first compound 1 µM) 32.3% | viability, T/C (second compound 0.316 µM, first compound 0.00316 µM) 33.4% | viability, T/C (second compound 0.316 µM, first compound 0.01 µM) 29.6% | viability, T/C (second compound 0.316 µM, first compound 0.0316 µM) 26.4% | viability, T/C (second compound 0.316 µM, first compound 0.1 µM) 22% | viability, T/C (second compound 0.316 µM, first compound 0.316 µM) 23.9% | viability, T/C (second compound 0.316 µM, first compound 1 µM) 23.1% | viability, T/C (second compound 1 µM, first compound 0.00316 µM) 29.3% | viability, T/C (second compound 1 µM, first compound 0.01 µM) 26.8% | viability, T/C (second compound 1 µM, first compound 0.0316 µM) 22.8% | viability, T/C (second compound 1 µM, first compound 0.1 µM) 18.2% | viability, T/C (second compound 1 µM, first compound 0.316 µM) 20.4% | viability, T/C (second compound 1 µM, first compound 1 µM) 21.1%
